# Experiments:
# [1] = target: EGFR (human) (UniProt P00533); conditions: for inhibition: ht-29, concentration not given here; for IC50: ht-29
# [2] = target: EGFR (human) (UniProt P00533); conditions: mda-mb-435
# [3] = target: EGFR (human) (UniProt P00533); conditions: a431
# [4] = target: EGFR (human) (UniProt P00533); conditions: sk-br-3
# [5] = target: EGFR (human) (UniProt P00533); conditions: sw 620
# Sequence of EGFR (human) (P00533 whole entry, looked up): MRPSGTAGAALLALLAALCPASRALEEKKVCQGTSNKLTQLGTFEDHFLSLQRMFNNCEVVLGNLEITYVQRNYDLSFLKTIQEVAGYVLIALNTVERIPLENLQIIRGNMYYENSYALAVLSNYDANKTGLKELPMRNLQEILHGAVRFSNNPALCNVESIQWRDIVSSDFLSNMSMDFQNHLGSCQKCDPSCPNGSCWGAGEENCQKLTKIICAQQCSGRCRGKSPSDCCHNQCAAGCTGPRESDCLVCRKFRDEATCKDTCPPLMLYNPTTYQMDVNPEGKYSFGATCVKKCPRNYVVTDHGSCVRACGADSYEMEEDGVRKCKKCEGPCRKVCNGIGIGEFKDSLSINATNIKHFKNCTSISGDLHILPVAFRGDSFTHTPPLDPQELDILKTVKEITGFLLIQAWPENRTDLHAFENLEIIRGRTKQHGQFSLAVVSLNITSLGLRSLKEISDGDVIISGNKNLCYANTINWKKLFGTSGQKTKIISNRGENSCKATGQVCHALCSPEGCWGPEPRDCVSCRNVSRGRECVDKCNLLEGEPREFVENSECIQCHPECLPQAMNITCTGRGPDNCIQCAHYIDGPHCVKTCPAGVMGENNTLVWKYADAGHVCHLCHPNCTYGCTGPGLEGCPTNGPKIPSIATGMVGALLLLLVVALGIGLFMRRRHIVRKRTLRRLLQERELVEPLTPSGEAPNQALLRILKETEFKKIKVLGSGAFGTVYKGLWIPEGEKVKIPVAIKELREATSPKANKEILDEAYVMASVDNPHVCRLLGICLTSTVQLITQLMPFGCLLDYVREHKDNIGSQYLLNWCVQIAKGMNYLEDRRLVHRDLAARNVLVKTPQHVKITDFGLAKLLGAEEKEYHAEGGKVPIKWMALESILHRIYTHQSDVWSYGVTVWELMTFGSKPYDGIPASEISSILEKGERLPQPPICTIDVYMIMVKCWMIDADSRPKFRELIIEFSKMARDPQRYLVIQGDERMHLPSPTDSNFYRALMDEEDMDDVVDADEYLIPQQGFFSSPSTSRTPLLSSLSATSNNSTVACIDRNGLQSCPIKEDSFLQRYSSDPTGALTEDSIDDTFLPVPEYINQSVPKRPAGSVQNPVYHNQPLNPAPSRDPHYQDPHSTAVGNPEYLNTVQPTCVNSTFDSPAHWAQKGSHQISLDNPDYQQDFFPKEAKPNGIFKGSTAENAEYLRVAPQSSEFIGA
Compound,inhibition [1] [%],IC50 [2] [µg/mL],IC50 [3] [µg/mL],IC50 [4] [µg/mL],IC50 [5] [µg/mL],IC50 [1] [µM]
COc1ccc(Cl)c(Nc2c(C#N)cnc3cc4nc[nH]c4cc23)c1,10,,,,,
COc1cc2cc3c(Nc4ccc(OCc5ccccc5)c(Cl)c4)c(C#N)cnc3cc2cc1OCCN1CCOCC1,,33.5,4.7,3.5,11.6,
N#Cc1cnc2c(sc3ccccc32)c1Nc1cccc(Br)c1,,> 5,> 5,> 5,> 5,
COc1cc(Nc2c(C#N)cnc3cc4cc(OCCN5CCN(C)CC5)c(OC)cc4cc23)c(C)cc1Cl,,,,,,8.6
COc1cc(Nc2c(C#N)cnc3cc4cc(OCCN5CCOCC5)c(OC)cc4cc23)c(C)cc1Cl,,,,,,> 10
COc1cc2cc3ncc(C#N)c(Nc4ccc(F)c(Cl)c4)c3cc2cc1OCCN1CCOCC1,,,0.76,0.04,0.36,
COc1cc(Nc2c(C#N)cnc3cc4cc(OCCN5CCOCC5)c(OC)cc4cc23)c(Cl)cc1C,,,,,,9.95
N#Cc1cnc2cc3cc(O)c(O)cc3cc2c1Nc1ccc(Cl)cc1Cl,,0.85,0.58,> 5,0.38,
N#Cc1cnc2cc3nc[nH]c3cc2c1Nc1cccc(Br)c1,,3.48,0.58,0.6,3.72,
N#Cc1cnc2cc3ccccc3cc2c1Nc1ccc(F)c(Cl)c1,,1.65,0.332,1.01,1.08,
COc1cc(Nc2c(C#N)cnc3cc4nc[nH]c4cc23)c(Br)cc1Cl,35,,,,,
C=CC(=O)Nc1ccc2sc3c(Nc4cccc(Br)c4)c(C#N)cnc3c2c1,,1.69,0.838,0.224,1,

# Now from value to compound:
inhibition [1] [%],IC50 [2] [µg/mL],IC50 [3] [µg/mL],IC50 [4] [µg/mL],IC50 [5] [µg/mL],IC50 [1] [µM],Compound
,0.46,0.41,0.59,0.67,,N#Cc1cnc2c(sc3ccc([N+](=O)[O-])cc32)c1Nc1ccc(Cl)cc1Cl
25,,,,,,N#Cc1cnc2cc3nc[nH]c3cc2c1Nc1ccc(Cl)cc1Br
,> 5,> 5,> 5,> 5,,N#Cc1cnc2c(sc3ccc(N)cc32)c1Nc1cccc(Br)c1
,> 5,> 5,> 5,> 5,,N#Cc1cnc2c(oc3ccccc32)c1Nc1cccc(Br)c1
,3.9,1.11,1.09,> 5,,C=CC(=O)Nc1cccc2c1sc1c(Nc3cccc(Br)c3)c(C#N)cnc12
,,,,,> 10,CCOc1cc2cc3c(Nc4cc(OC)c(Cl)cc4C)c(C#N)cnc3cc2cc1OCCN1CCOCC1
0,,,,,,COc1cc(Nc2c(C#N)cnc3cc4nc[nH]c4cc23)cc(OC)c1OC

# Reference: the Kinase Knowledgebase extract (Sharma et al. 2016)
